Reference: patent US20130137102A1, “Methods and kits for modulating tumor invasiveness and metastatic potential” (TUFTS MEDICAL CENTER, INC., priority 2010, published 2013)
Where a SMILES comes first, the peptide text is derived from it. [ ]: non-standard residue; d: D form. Nle = CCCC[C@H](N)C(=O)O

Key:
Tiam1 = assay: In vitro Tiam1 cleavage assay; type: biochemical, human; conditions: immunoblot
Experimental: HEK293T cells were transiently transfected with full-length Tiam1 cDNA as previously described (Buchsbaum et al., 2002). Forty-eight hours after transfection, cells were washed once with PBS and lysed in SP buffer as described above. Lysates were cleared of unbroken cells and debris by centrifugation at 10,000×g for 10 minutes. Aliquots of cleared lysates were reserved for immunoblots; the remainder were incubated with protein A-Sepharose beads (Pharmacia) and anti-Tiam1 antibody (diluted according to the manufacturer's instructions) or equal amounts of polyclonal rabbit IgG (Santa Cruz) for 2 h at 4° C. with constant agitation. Immunoprecipitates were washed twice with ice-cold SP buffer and once with Reaction Buffer (20 mM Tris-HCl, pH 7.5, 10 mM DTT, 6 mM CaCl2) in the presence of protease inhibitors (1 mM PMSF and 1.7 μg/ml aprotinin) prior to the cleavage reaction.
Pre-senescent cells were maintained in culture as described above. Senescence was induced with 800 uM H2O2 as described above, and confirmed by SA-β gal staining. Pre-senescent and senescent RMFs were washed with cold PBS, pelleted, and resuspended in extraction buffer (10 mM HEPES pH 7.0, 2 mM MgCl2, 50 mM NaCl, 1 mM DTT) containing inhibitors (17 μg/ml aprotinin, 10 μg/ml leupepsin, 100 μM NaV, 3.3 mM PMSF). Cells were lysed by freeze-thaw cycles in ethanol-liquid nitrogen/37° C. water bath. Extracts were centrifuged at 10,000 g for 15 min at 4° C., and resulting supernatants were used as the cytosolic fraction. Protein concentration was determined by BCA protein assay (Bio-Rad).
Immunoprecipitated proteins were incubated with extracted lysates from pre-senescent or senescent cells in Reaction Buffer for 2 hours at 37° C. with constant agitation. […] Samples were resolved by SDS-PAGE and immunoblotting as described.

RMF cells = assay: Senescence induction and SA-β-Gal staining; type: cell-based, human; conditions: repeated 3-5 days later, seven days after induction
Experimental: After treatment, cells were rinsed twice with phosphate-buffered saline (PBS) and left to recover in culture medium. […] For each treatment, senescence induction was repeated 3-5 days later to prevent recovery and cell cycle re-entry. Cells were sub-cultured for at least 7 days and senescence induction was confirmed by SA-β-gal staining.
SA-β-Gal staining was conducted as described previously [Dimri, G P, et al., 1995, Proc Natl Acad Sci USA 92:9363-7]. Briefly, cells were washed twice in PBS and fixed 5 minutes in 2% formaldehyde/0.2% glutaraldehyde, washed again, and incubated at 37° C. overnight with fresh senescence-associated β-Gal (SA-β-Gal) stain solution: 1 mg 5-bromo-4-chloro-3-indolyl-β-D-galactoside (X-Gal) per ml (stock=20 mg in dimethylformamide per ml)/40 mM citric acid/sodium phosphate, pH 6.0/5 mM potassium ferrocyanide/5 mM potassium ferricyanide/150 mM NaCl/2 mM MgCl2. Cells with positive staining were observed and counted under a light microscope (Nikon, Eclipse TS100).

HMECs = assay: Spheroid co-culture in Matrigel with senescent RMFs; type: cell-based, human; conditions: RMFs exposed to the agent before co-culture; preliminary examples
Experimental: (§1) As described previously [Xu K, et al., 2010, Oncogene 29:6533-42], Matrigel (BD Biosciences) was diluted in 1:1 ratio with ice-cold HMEC medium, and 50 μl of the mixture was placed mid-well in a 24-well plate. After incubating for 5 min in 37° C., an additional 250 μl of Matrigel:medium mixture was added into the well and incubated for another 30 min. A 1:1 mixture of HMEC and RMF cells (0.5×10^5 cells each) in 0.5 ml of HMEC medium was gently dropped onto the top of the solidified gel. Cells were cultured for two weeks and medium was changed every two or three days. Spheroid formation and projection growth were monitored daily under light microscopy. Images were obtained on a Diaphot Software Version 4.1 (Diagnostic Instruments Inc).
as §1, with “and 50 ul of the” for “and 50 μl of the”, “another 30 min A 1:1” for “another 30 min. A 1:1”, “light microscopy. […]” for “light microscopy. Images were obtained on a Diaphot Software Version 4.1 (Diagnostic Instruments Inc).”

[1] = system: T-cell lymphoma invasion and metastasis-inducing protein 1 (Tiam1)
Chain of T-cell lymphoma invasion and metastasis-inducing protein 1 (Tiam1) (chain, as listed by the source): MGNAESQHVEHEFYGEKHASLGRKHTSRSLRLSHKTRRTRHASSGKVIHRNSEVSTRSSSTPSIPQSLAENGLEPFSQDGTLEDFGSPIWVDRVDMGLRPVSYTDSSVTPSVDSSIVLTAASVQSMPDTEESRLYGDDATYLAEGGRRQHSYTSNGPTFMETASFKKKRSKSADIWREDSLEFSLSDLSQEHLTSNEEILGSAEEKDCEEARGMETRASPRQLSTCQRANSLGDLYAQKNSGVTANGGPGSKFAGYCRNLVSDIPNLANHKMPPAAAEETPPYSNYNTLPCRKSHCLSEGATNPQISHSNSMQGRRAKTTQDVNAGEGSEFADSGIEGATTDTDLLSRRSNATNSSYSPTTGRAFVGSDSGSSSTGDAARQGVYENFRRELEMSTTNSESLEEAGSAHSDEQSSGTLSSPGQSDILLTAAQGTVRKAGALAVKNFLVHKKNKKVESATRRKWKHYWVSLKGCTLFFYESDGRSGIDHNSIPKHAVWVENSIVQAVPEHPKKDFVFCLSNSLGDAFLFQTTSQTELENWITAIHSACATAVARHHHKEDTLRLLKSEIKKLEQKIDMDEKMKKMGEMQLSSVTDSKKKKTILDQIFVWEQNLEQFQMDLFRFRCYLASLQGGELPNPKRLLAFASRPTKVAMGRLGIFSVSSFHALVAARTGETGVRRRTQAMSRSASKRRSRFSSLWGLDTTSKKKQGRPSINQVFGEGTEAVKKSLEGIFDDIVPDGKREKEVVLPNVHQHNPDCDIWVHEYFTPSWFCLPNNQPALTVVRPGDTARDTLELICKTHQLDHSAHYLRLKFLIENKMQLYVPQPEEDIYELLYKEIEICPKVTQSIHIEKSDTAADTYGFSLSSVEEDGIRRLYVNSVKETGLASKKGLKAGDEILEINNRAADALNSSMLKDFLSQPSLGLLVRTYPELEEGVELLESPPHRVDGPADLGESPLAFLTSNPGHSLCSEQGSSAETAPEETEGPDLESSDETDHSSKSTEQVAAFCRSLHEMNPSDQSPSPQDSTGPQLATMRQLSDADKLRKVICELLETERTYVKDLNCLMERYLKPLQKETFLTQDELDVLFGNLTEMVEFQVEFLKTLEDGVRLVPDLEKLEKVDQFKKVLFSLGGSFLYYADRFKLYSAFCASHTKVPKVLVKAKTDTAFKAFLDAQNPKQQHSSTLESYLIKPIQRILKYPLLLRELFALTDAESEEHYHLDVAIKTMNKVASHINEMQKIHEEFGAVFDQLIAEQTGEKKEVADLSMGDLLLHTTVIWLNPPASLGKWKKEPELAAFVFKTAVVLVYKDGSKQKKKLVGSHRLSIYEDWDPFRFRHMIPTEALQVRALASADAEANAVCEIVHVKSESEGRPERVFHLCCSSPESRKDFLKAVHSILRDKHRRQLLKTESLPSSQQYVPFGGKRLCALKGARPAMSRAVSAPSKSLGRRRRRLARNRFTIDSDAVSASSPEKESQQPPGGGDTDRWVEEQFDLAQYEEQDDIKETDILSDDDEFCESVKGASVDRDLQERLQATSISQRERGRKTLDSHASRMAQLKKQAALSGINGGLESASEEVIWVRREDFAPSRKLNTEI

Molecule: O=C(O)CN(CCN(CC(=O)O)CC(=O)O)CC(=O)O [EDTA]
- degradation of immobilized Tiam1 induced by senescent lysates (Tiam1; lysates pre-incubated on ice 30 minutes with 1 mM EDTA): significantly inhibited degradation of the immobilized Tiam1

Molecule: OO [H2O2, hydrogen peroxide]
- induction of senescence (morphology, SA β-gal staining) (RMF cells; 800 μmol/L H2O2 for 2 hours): had taken on a morphologic appearance characteristic of senescence
- HMEC invasiveness into matrix on co-culture with RMFs rendered senescent by the agent (HMECs): increased invasiveness into the surrounding matrix

Molecule: calpain proteases
- degradation of immunoprecipitated Tiam1 (in vitro Tiam1 cleavage assay, immunoblot) [1]: Pre-incubation of cell lysates with either the calpain inhibitor ALLN or the calcium-chelator EDTA significantly inhibited degradation of the immobilized Tiam1 induced by senescent lysates

Molecule: CC(C)C[C@H](NC(=O)[C@H](Cc1ccccc1)NC(=O)c1cnccn1)B(O)O [bortezomib]
- degradation of immobilized Tiam1 by senescent lysates (Tiam1; lysates pre-incubated with 5 nM bortezomib at 37° C. for 24 hours): did not prevent degradation of immobilized Tiam1

Molecule: CCCC[C@@H](C=O)NC(=O)[C@H](CC(C)C)NC(=O)[C@H](CC(C)C)NC(C)=O [ALLN] (Ac-Leu-Leu-[Nle]-aldehyde)
- degradation of immobilized Tiam1 induced by senescent lysates (Tiam1; lysates pre-incubated on ice 30 minutes with 50 μM ALLN): significantly inhibited degradation of the immobilized Tiam1

Molecule: bleomycin
- induction of senescence (morphology, SA β-gal staining) (RMF cells; 50 μg/ml bleomycin for 24 hours): had taken on a morphologic appearance characteristic of senescence
- HMEC invasiveness into matrix on co-culture with RMFs rendered senescent by the agent (HMECs): increased invasiveness into the surrounding matrix
